Measurements: ChEMBL document CHEMBL4177611, “Discovery of aminocyclohexene analogues as selective and orally bioavailable hNav1.7 inhibitors for analgesia” (Bioorg Med Chem Lett, 2017)

How the values were obtained:
[1] = Half life in Sprague-Dawley rat at 3 mg/kg administered as single iv bolus by LC-MS/MS analysis; type: ADME, organism-based; conditions: in vivo
[2] = physchem; conditions: buffer, pH 7.4
[3] = molecular target: Voltage-gated inwardly rectifying potassium channel KCNH2 (Homo sapiens, UniProt Q12809)
[4] = Unbound plasma concentration in Sprague-Dawley rat spinal nerve ligation model at 100 mg/kg administered as single dose via oral gavage measured after 1 hr by LC-MS/MS analysis; type: ADME, organism-based; conditions: in vivo
[5] = molecular target: Cytochrome P450 2D6 (Homo sapiens, UniProt P10635)
Cytochrome P450 2D6, sequence (P10635 whole entry): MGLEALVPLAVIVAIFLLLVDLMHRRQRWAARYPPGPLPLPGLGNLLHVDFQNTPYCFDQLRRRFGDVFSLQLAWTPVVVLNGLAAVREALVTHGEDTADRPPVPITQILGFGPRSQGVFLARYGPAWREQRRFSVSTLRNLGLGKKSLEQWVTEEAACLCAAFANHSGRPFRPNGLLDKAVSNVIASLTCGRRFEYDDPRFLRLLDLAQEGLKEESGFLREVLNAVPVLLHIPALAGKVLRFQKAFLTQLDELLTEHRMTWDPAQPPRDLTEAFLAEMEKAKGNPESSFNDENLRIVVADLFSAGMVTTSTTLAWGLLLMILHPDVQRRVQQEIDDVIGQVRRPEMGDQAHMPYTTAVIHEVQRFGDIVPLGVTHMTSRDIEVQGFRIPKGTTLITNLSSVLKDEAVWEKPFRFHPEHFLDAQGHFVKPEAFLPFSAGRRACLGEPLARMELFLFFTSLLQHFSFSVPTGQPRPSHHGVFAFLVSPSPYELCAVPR

[6] = molecular target: Sodium channel protein type 9 subunit alpha (Homo sapiens, UniProt Q15858); assay: Inhibition of human Nav1.7 expressed in CHO-K1 cells at -120 mV holding potential incubated over 5 mins measured at 15 secs interval by Qpatch clamp assay; type: cell-based
[7] = AUC in Sprague-Dawley rat at 10 mg/kg administered as single dose via oral gavage by LC-MS/MS analysis; type: ADME, organism-based; conditions: in vivo
[8] = Initial plasma concentration in Sprague-Dawley rat at 3 mg/kg administered as single iv bolus by LC-MS/MS analysis; type: ADME, organism-based
[9] = molecular target: T1, Cytochrome P450 1A2 (Homo sapiens, UniProt P05177)
T1 sequence (P05177 whole entry): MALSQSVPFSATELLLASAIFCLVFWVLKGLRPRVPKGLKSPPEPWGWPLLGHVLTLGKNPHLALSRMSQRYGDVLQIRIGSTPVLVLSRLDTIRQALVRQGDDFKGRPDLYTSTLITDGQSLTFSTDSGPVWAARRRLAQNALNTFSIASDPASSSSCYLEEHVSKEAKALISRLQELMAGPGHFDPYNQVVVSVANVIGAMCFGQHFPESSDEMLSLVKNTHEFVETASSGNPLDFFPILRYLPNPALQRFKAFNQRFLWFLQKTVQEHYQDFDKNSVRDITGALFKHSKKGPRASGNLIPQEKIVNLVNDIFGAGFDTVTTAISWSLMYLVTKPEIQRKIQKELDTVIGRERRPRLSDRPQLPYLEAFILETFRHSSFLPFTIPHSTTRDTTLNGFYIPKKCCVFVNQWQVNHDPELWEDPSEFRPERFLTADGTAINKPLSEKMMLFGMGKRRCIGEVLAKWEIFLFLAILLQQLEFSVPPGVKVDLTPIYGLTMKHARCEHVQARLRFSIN

[10] = Plasma concentration in Sprague-Dawley rat spinal nerve ligation model at 30 mg/kg administered as single dose via oral gavage measured after 1 hr by LC-MS/MS analysis; type: ADME, organism-based
[11] = Intrinsic clearance in rat liver microsomes at 1 uM after 60 mins in presence of NADPH by LC-MS/MS analysis; type: ADME, microsome; conditions: read-out: CLH
[12] = Unbound plasma concentration in Sprague-Dawley rat spinal nerve ligation model at 30 mg/kg administered as single dose via oral gavage measured after 4 hrs by LC-MS/MS analysis; type: ADME, organism-based; conditions: in vivo
[13] = Clearance in Sprague-Dawley rat administered as single iv bolus by LC-MS/MS analysis; type: ADME, organism-based; conditions: in vivo
[14] = molecular target: Cytochrome P450 2C19 (Homo sapiens, UniProt P33261)
Cytochrome P450 2C19, sequence (P33261 whole entry): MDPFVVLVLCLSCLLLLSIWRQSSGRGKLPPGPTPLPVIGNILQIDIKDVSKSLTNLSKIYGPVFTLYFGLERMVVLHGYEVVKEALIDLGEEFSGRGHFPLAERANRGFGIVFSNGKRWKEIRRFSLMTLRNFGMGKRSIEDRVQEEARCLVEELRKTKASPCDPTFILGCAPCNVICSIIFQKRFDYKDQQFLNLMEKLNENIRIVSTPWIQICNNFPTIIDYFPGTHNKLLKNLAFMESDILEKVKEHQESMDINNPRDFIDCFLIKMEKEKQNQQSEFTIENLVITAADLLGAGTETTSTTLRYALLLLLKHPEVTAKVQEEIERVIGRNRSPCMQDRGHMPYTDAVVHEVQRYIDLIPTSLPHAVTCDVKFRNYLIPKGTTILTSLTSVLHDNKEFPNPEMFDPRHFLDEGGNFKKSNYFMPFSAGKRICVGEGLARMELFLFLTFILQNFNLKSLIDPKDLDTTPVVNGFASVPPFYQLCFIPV

[15] = Plasma concentration in Sprague-Dawley rat spinal nerve ligation model at 100 mg/kg administered as single dose via oral gavage measured after 4 hrs by LC-MS/MS analysis; type: ADME, organism-based
[16] = Unbound plasma concentration in Sprague-Dawley rat spinal nerve ligation model at 100 mg/kg administered as single dose via oral gavage measured after 2 hrs by LC-MS/MS analysis; type: ADME, organism-based; conditions: in vivo
[17] = Drug metabolism in Sprague-Dawley rat dorsal root ganglion assessed as 4-(((1R,6R)-6-amino-2-(4-fluorophenyl)cyclohex-2-enyl)methoxy)-5-chloro-2-fluoro-N-(thiazol-4-yl)benzenesulfonamide formation at 100 mg/kg, ig measured after 1.5 hrs by LC-MS/MS analysis; type: ADME, organism-based; conditions: in vivo, po
[18] = Intrinsic clearance in human liver microsomes at 1 uM after 60 mins in presence of NADPH by LC-MS/MS analysis; type: ADME, microsome; conditions: read-out: CLH
[19] = Drug metabolism in human liver microsomes assessed as dealkylation by measuring M1 metabolite formation at 10 uM measured up to 60 mins in presence of NADPH by LC-MS analysis relative to total metabolite peak area; type: ADME, microsome; conditions: 1 h
[20] = Tmax in Sprague-Dawley rat at 10 mg/kg administered as single dose via oral gavage by LC-MS/MS analysis; type: ADME, organism-based; conditions: in vivo
[21] = AUC (0 to last) in Sprague-Dawley rat at 10 mg/kg administered as single dose via oral gavage by LC-MS/MS analysis; type: ADME, organism-based; set-up: dose 10 mg/kg, route oral, time 0 - last; conditions: in vivo
[22] = Plasma concentration in Sprague-Dawley rat spinal nerve ligation model at 100 mg/kg administered as single dose via oral gavage measured after 2 hrs by LC-MS/MS analysis; type: ADME, organism-based
[23] = Metabolic stability in human liver microsomes assessed as parent compound remaining at 10 uM measured up to 60 mins in presence of NADPH by LC-MS analysis; type: ADME, microsome; conditions: read-out: Stability
[24] = Plasma concentration in Sprague-Dawley rat spinal nerve ligation model at 30 mg/kg administered as single dose via oral gavage measured after 4 hrs by LC-MS/MS analysis; type: ADME, organism-based
[25] = molecular target: Sodium channel protein type 4 subunit alpha (Homo sapiens, UniProt P35499); type: ADME
Sodium channel protein type 4 subunit alpha, sequence (P35499 whole entry): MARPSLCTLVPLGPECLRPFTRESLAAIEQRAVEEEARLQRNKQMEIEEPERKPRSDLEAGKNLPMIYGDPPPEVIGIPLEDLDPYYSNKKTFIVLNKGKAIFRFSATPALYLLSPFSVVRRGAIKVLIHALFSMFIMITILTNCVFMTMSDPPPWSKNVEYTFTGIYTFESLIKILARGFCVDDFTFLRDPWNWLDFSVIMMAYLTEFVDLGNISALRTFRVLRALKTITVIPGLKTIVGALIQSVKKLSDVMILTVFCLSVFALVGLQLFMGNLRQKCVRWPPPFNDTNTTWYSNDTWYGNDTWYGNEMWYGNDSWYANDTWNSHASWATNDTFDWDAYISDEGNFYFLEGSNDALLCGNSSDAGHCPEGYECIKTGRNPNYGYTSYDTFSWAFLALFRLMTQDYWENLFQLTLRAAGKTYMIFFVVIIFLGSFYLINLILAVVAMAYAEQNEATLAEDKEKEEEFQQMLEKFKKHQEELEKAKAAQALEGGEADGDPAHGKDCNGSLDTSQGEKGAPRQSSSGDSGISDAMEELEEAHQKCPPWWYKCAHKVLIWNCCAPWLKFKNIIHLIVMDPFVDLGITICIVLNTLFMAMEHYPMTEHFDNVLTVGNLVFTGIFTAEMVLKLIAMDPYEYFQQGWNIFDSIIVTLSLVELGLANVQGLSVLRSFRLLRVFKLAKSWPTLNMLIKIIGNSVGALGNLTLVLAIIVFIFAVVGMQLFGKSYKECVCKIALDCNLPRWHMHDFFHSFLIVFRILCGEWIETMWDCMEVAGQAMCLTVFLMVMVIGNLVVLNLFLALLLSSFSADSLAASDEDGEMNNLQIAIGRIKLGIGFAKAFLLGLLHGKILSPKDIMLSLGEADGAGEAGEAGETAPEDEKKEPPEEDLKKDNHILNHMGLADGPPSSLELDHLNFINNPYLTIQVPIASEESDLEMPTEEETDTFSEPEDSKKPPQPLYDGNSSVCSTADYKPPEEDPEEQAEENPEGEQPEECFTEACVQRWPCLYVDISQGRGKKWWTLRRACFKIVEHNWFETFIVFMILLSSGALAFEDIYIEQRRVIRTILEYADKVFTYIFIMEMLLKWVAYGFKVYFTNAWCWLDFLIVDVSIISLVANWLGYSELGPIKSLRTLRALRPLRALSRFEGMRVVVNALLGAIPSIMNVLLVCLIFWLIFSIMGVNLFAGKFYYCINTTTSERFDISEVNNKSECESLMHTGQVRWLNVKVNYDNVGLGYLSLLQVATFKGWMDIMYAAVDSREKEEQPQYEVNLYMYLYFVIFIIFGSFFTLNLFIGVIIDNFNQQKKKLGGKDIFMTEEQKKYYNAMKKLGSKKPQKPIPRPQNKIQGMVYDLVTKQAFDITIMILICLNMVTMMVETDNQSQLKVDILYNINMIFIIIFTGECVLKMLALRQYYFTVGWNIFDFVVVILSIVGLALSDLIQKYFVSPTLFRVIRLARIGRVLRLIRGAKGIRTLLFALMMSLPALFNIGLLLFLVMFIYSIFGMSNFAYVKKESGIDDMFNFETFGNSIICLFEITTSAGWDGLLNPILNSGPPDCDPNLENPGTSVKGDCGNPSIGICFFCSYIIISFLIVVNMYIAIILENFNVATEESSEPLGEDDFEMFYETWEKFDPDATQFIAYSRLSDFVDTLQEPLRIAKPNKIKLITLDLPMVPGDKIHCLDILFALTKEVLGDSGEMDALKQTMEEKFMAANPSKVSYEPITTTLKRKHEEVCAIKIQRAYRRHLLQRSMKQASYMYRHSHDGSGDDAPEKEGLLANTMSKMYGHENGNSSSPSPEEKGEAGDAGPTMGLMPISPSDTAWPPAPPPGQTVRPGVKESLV

[26] = Dissociation constant, pKa of the compound; type: physicochemical
[27] = Plasma concentration in Sprague-Dawley rat spinal nerve ligation model at 30 mg/kg administered as single dose via oral gavage measured after 2 hrs by LC-MS/MS analysis; type: ADME, organism-based
[28] = Unbound plasma concentration in Sprague-Dawley rat spinal nerve ligation model at 30 mg/kg administered as single dose via oral gavage measured after 1 hr by LC-MS/MS analysis; type: ADME, organism-based; conditions: in vivo
[29] = Volume of distribution at steady state in Sprague-Dawley rat administered as single iv bolus by LC-MS/MS analysis; type: ADME, organism-based; conditions: in vivo, read-out: Vdss
[30] = AUC (0 to last) in Sprague-Dawley rat at 3 mg/kg administered as single iv bolus by LC-MS/MS analysis; type: ADME, organism-based; set-up: dose 3 mg/kg, route intravenous, time 0 - last; conditions: in vivo
[31] = molecular target: Cytochrome P450 2C9 (Homo sapiens, UniProt P11712)
[32] = Fraction unbound in human plasma at 2 uM after 4 hrs by LC-MS/MS analysis; type: ADME, cell-free
[33] = test system: Rattus norvegicus; assay: Unbound AUC (0 to last) in Sprague-Dawley rat at 10 mg/kg administered as single dose via oral gavage by LC-MS/MS analysis; type: ADME, organism-based; conditions: in vivo
[34] = molecular target: Sodium channel protein type 5 subunit alpha (Homo sapiens, UniProt Q14524); assay: Inhibition of human Nav1.5 expressed in HEK293 cells at -120 mV holding potential incubated over 5 mins measured at 15 secs interval by Qpatch clamp assay; type: cell-based
Sodium channel protein type 5 subunit alpha, sequence (Q14524 whole entry): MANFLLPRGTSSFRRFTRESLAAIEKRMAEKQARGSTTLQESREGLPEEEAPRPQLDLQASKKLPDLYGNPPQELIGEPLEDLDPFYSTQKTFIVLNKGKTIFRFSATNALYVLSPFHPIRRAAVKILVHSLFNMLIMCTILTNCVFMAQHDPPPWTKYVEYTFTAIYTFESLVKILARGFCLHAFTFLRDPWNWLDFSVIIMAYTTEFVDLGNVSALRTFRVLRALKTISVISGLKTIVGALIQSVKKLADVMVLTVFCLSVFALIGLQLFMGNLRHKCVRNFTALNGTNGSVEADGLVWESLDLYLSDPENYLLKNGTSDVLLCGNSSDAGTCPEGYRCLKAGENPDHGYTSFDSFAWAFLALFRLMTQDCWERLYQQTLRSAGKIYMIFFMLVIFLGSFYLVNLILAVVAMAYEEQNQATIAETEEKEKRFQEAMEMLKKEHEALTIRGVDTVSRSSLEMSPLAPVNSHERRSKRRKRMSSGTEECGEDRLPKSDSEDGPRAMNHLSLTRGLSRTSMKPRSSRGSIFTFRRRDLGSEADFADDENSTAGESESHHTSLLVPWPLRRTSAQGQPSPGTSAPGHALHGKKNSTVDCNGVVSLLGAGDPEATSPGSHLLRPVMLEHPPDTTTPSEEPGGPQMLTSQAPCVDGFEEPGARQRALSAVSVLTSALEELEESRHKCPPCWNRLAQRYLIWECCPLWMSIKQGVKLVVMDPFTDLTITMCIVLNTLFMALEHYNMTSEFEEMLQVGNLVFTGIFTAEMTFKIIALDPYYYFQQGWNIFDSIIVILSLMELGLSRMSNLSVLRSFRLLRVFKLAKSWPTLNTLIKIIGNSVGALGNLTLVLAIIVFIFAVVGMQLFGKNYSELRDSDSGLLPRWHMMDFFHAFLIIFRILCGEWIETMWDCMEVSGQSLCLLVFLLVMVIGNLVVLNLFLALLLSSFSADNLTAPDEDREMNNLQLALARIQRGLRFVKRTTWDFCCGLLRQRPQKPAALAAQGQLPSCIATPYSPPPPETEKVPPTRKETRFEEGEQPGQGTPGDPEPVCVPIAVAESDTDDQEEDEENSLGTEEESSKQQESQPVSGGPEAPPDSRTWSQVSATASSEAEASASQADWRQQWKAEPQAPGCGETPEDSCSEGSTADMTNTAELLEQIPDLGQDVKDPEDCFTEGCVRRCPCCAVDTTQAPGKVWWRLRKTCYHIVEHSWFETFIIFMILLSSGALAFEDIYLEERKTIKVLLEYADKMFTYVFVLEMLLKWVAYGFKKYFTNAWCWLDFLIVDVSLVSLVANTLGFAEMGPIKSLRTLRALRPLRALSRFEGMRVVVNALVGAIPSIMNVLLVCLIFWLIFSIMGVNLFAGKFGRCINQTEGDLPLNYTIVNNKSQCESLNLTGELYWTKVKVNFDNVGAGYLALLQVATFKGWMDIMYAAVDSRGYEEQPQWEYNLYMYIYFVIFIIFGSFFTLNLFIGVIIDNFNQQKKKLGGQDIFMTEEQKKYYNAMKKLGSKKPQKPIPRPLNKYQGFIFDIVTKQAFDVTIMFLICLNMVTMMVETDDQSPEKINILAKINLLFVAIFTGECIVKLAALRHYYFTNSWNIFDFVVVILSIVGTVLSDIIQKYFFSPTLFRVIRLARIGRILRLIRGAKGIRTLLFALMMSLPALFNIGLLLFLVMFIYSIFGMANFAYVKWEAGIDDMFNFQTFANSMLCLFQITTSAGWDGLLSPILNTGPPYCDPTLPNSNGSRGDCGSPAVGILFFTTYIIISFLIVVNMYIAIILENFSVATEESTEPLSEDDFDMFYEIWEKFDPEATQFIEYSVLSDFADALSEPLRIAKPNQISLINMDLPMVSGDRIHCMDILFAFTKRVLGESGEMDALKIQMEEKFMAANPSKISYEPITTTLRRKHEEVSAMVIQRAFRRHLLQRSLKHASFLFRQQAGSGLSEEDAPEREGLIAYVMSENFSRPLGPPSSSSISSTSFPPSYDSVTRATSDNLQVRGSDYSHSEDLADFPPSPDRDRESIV

[35] = Volume of distribution at steady state in Sprague-Dawley rat at 3 mg/kg administered as single iv bolus by LC-MS/MS analysis; type: ADME, organism-based; conditions: in vivo, read-out: Vdss

CCN[C@@H]1CCC=C(c2ccc(F)cc2)[C@H]1COc1cc(F)c(S(=O)(=O)Nc2cscn2)cc1Cl.Cl showed a half-life [1] of 1.56 h, a solubility thermodynamic [2] of 26.5 µM and an IC50 [3] of 4.4 µM. The “Cp(f)” value [4] was 297 nM, the IC50 [5] was 22 µM and the IC50 [6] was 0.034 µM. The AUC [7] was 3.04 µM·h, the C0 [8] was 1910 nM and the IC50 [9] was over 50 µM. For the same compound, the concentration at 1 h [10] was 2010 nM, the CLint scaled at 1 µM [11] was 137 mL/min/kg and the “Cp(f)” value [12] was 54 nM. The clearance [13] was 37 mL/min/kg, the IC50 [14] was over 50 µM and the concentration at 4 h [15] was 4640 nM. For the same compound, the “Cp(f)” value [16] was 262 nM, the Drug metabolism [17] was 0.5 µM/g and the CLint scaled at 1 µM [18] was 66.9 mL/min/kg. For the same compound, the Drug metabolism [19] was “Metabolite_Detected”, the Tmax [20] was 1.67 h and the AUC(0-t) [21] was 3.04 µM·h. For the same compound, the concentration at 2 h [22] was 7500 nM, the remaining at 1 h, 10 µM [23] was 37.6% and the concentration at 4 h [24] was 1530 nM. For the same compound, the IC50 [25] was 25.2 µM, the pKa [26] was 6.34 to 9.35 and the concentration at 2 h [27] was 2160 nM. For the same compound, the “Cp(f)” value [28] was 70 nM, the Vd [29] was 4.65 L/kg and the AUC(0-t) [30] was 2.44 µM·h. For the same compound, the IC50 [31] was 5.7 µM, the fraction unbound at 4 h, 2 µM [32] was 0.015 and the fAUClast [33] was 0.106 µM·h. It also gave an IC50 [34] of over 10 µM and a Vd [35] of 4.63 L/kg.
